From patent publication US20250269050A1, “CYCLIC DICHALCOGENIDE ADC LINKER UNITS AND USES THEREOF” (priority 2024, published 2025)

Columns and labels:
[1] = test system: Trop-2-positive breast cancer cancer cell line; test: Anti-cancer efficacy study in mice, Trop-2-positive cancer model; format: in vivo; conditions: single treatment at day 7, 3 mg/kg intravenous
[2] = In vivo pharmacokinetics experiment in mice (intact immunoconjugate in plasma, MS-based); conditions: single 7 mg/kg intravenous injection, plasma up to 380 h, FIG. 3
Protocol: Mice are maintained in individually ventilated cages at constant temperature (22±2° C., air-conditioned) and humidity (45-65%), under optimum hygienic conditions with 10-15 air changes per hour. A cycle of 12 h artificial fluorescent lightning and 12 h darkness is applied and animal behavior is monitored daily throughout the study. The mice receive food and water ad libitum.
To study the in vivo disposition of molecules of the invention mice are treated once with 6, 7 or commercial Trodelvy® at a dose of 7 mg/kg by intravenous injection. Plasma samples are collected at the following time points: predose, postdose: 2 min, 6 h, 24 h, 48 h, 72 h, 168 h, 240 h, and 380 h. All samples are analyzed using an MS-based analytical method for quantification of the intact immunoconjugates and of the free molecular cargo in the mouse plasma.

**Q.** With Trodelvy® as the substance, how does the “tumor growth compared to the vehicle group” value ([1]; FIG. 4) read?
**A.** strong suppression of tumor growth

**Q.** And the “duration of tumor response” value ([1]; up to day 57, FIG. 4)?
**A.** tumors significantly start to grow again after day 30

**Q.** What about the “intact immunoconjugate in mouse plasma over time” value [2] of the same substance?
**A.** fast and significant loss of intact immunoconjugate
